Consider three molecules from PubChem BioAssay (NCI).

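All cell lines were grown in 96-well plates and treated with compound for 48 hours. Here, GI50 denotes the concentration required for 50% inhibition of growth. The concentration for full growth arrest is given as TGI.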 Some results are limits rather than exact numbers.

Test systems include A498 renal; EKVX NSCLC; HCC-2998 colon; HOP-92 NSCLC; LOX IMVI melanoma; OVCAR-3 ovarian; SK-MEL-2 melanoma; SNB-19 CNS; U251 CNS; UACC-257 melanoma.
Assay in all cases: NCI anticancer screen, dose series, 48 h

`O=C(/C=C\c1cccc([N+](=O)[O-])c1)c1ccccc1`: the GI50 is 9.05 µM in the test on A498 renal; 13.1 µM in the test on EKVX NSCLC; 2.81 µM in the test with HCC-2998 colon; 2.04 µM in the test with HOP-92 NSCLC; 1.76 µM in the test with LOX IMVI melanoma; 1.76 µM in the test with OVCAR-3 ovarian. The GI50 with SK-MEL-2 melanoma is 3.91 µM; in the test with SNB-19 CNS, 6.81 µM; in the test on U251 CNS, 2.01 µM; in the test with UACC-257 melanoma it was 4.85 µM. For the same molecule, the TGI turned out to be 25.1 µM in the test on A498 renal; 29.1 µM with EKVX NSCLC; 9.74 µM in the test on HCC-2998 colon; 5.12 µM with HOP-92 NSCLC; 3.82 µM in the test with LOX IMVI melanoma; 3.6 µM in the test on OVCAR-3 ovarian. Moreover, the TGI with SK-MEL-2 melanoma came out at 17.9 µM; in the test on SNB-19 CNS, 21 µM; in the test on U251 CNS, 4.91 µM; with UACC-257 melanoma, 12.4 µM.
As for `COc1cc(-c2nn(C)nc2-c2cc3ccccc3s2)cc(OC)c1OC`, the GI50 is 0.0413 µM with A498 renal; 0.466 µM with EKVX NSCLC; 0.407 µM with HCC-2998 colon; 0.0806 µM in the test with HOP-92 NSCLC; 0.169 µM in the test on LOX IMVI melanoma; 0.0354 µM in the test on OVCAR-3 ovarian. Besides, the GI50 is 0.0597 µM in the test with SK-MEL-2 melanoma, 0.254 µM in the test with SNB-19 CNS, 0.0783 µM in the test with U251 CNS and 51.5 µM in the test with UACC-257 melanoma. Further, the TGI was 7.63 µM with A498 renal; above 100 µM with EKVX NSCLC; above 100 µM in the test with HCC-2998 colon; 78.7 µM in the test with HOP-92 NSCLC; above 100 µM in the test on LOX IMVI melanoma; 0.77 µM in the test on OVCAR-3 ovarian. Further, the TGI with SK-MEL-2 melanoma is 21.2 µM; in the test on SNB-19 CNS, above 100 µM; in the test with U251 CNS it was 30.5 µM; with UACC-257 melanoma, above 100 µM.
Consider `O=C(/C=C/c1ccccc1Cl)c1ccc(O)cc1`, for which the GI50 in the test with A498 renal was 8.46 µM; in the test with EKVX NSCLC, 10 µM; with HCC-2998 colon, 12.7 µM; in the test with HOP-92 NSCLC, 6.75 µM; in the test on LOX IMVI melanoma, 3.09 µM; in the test with OVCAR-3 ovarian, 3.46 µM. In addition, the GI50 with SK-MEL-2 melanoma was 15 µM; in the test on SNB-19 CNS it was 6.95 µM; in the test with U251 CNS it was 3.41 µM; in the test on UACC-257 melanoma, 9.79 µM. In addition, the TGI was determined as 21.6 µM in the test on A498 renal; 25.8 µM in the test on EKVX NSCLC; 26.7 µM in the test on HCC-2998 colon; 23.7 µM in the test with HOP-92 NSCLC; 10.3 µM in the test on LOX IMVI melanoma; 9.22 µM in the test on OVCAR-3 ovarian. The TGI was 31.2 µM in the test with SK-MEL-2 melanoma, 19.6 µM in the test on SNB-19 CNS, 12.7 µM in the test on U251 CNS and 22.5 µM with UACC-257 melanoma.
